Measured values from patent publication US12569686B2, “Chronically implantable systems and methods for affecting cardiac contractility and/or relaxation” (Cardionomix, Inc., priority 2020, dated 2026).

Tested on: normal, non-HF ovine model
Experiment: Change in ventricle contractility (max dP/dt as surrogate) and beat-by-beat correlation of right and left ventricle contractility after an injection
Format: in vivo
Conditions: pressure max (dP/dt) used as surrogate for contractility, calcium at 5 mL
Excerpt: The correlation was a heartbeat-by-heartbeat analysis. Pressure measurements, taken by a Millar catheter comprising a MEMS pressure sensor, in units of max (dP/dt) was used as a surrogate for contractility. The first change, a dobutamine injection, provided a very high contractility increase greater than 500%. The average correlation between right ventricle contractility and left ventricle contractility was very good at 0.91, where 1.00 is a perfect correlation. Accordingly, if a subject is given a dobutamine injection, measuring changes to right ventricle contractility can provide accurate information about changes to left ventricle contractility. The first change was repeated three times. The second change, calcium injection at 5 mL, provided a contractility increase of about 20%. […] The average correlation between right ventricle contractility and left ventricle contractility using a Millar (MEMS) sensor on a catheter was very good at 0.91. The average correlation between right ventricle contractility and left ventricle contractility using a fluid-filled lumen of a Swan-Ganz catheter in communication with an external pressure sensor was also very good at 0.87. […]

Substance: calcium [Calcium Injection]
- Contractility % Increase: ~20%
- Contractility % Increase (listed as calcium injection): about 20%
